Laboratory results from US20130210034A1, “COMPLEX PHOSPHOPROTEIN ACTIVATION PROFILES” (BECKMAN COULTER, INC., priority 2005, published 2013).
“And” between values parts separate entries of the source, which are not always exact repeats. Equal entries are not always repeated.

Columns and labels:
Format in all cases: cell-based, human
pSTAT5 [1] = test: Phosphoprotein kinetic profiles in CD34+, CD117+ cells of AML bone marrow samples
Description: (§1) To assess the signal transduction response after growth factor simulation, 100 to 200 μL of processed samples including about 2×10^6 WBC/100 μL were added to tubes and incubated at 37° C. for 30 minutes. For inhibition experiments, cells were incubated with 100 μM U0126, 1 μg/mL rapamycin, or both for at least 20 minutes prior to cytokine addition and in all cases for 30 min prior to formaldehyde addition. […] After stimulation the cells were immediately fixed by the addition of formaldehyde to a final concentration of 4% v/v and incubated for 10 minutes at room temperature. Following fixation, red blood cells were lysed by the addition of TRITON-X/PBS solution (0.1% v/v final concentration Triton X-100) supplemented with a 1 x phosphatase inhibitor cocktail (PIC; final concentrations: 0.2 mM sodium orthovanadate, 2 mM sodium pyrophosphate decahydrate, 2 mM [3-glycerophosphate, and 10 mM sodium fluoride) and incubation at 37° C. for 20 minutes. The incubated solution was chilled by the addition of ice-cold Wash Buffer (final concentration 1×PBS and either 4% bovine serum albumin (BSA) or 4% heat-inactivated fetal bovine serum (FBS), supplemented with 1×PIC), and the samples were centrifuged at 300 g for 6 minutes at 4° C.). If the lysis was incomplete, samples were retreated with 0.1% Triton X-100 at 37° C. for 10 to 20 minutes. After removal of the supernatant, cells were washed twice in ice-cold Wash Buffer supplemented with 1×PIC and permeabilized by the addition of pre-chilled 80% methanol while simultaneously vortexing the tube and incubated on ice for 10 minutes. Methanol was removed by centrifugation, the pellet was washed with ice-cold 1×PBS, and non-specific binding was blocked by the addition of ice-cold Wash Buffer supplemented with 1×PIC and incubation at 4° C. for a minimum of 30 minutes.
(§2) To stain cells with fluorescent conjugated monoclonal antibodies, the incubated solution was centrifuged to remove the supernatant and the pellet was incubated for 60 minutes at 4° C. with an antibody staining solution including 0.25 μg to 0.50 μg of pS6-Pacific Blue, pERK-ALEXA 488, pSTAT5-ALEXA 647, CD34-PE, CD45-PerCP, and CD117-PC7. Samples were washed three times with ice-cold Wash Buffer supplemented with 1×PIC, resuspended in 0.5 mL ice-cold Wash Buffer supplemented with 1×PIC including 0.5 μg/mL DAPI, and analyzed by flow cytometryusing a BD LSR II Flow Cytometer, equipped with a High Throughput Sampler (HTS).
(§3) First, doublets, aggregates, and debris were excluded by gating on single cell events in the SSC-Area versus SSC-Height histogram. Then, in events passing through this gate, debris near the origin of the FSC-Area versus SSC-Area plot (gray in FIG. 4A) was excluded by drawing a gate around an area encompassing, primarily, lymphocytes, monocytes, and granulocytes (LMG, black in FIG. 4A). Next, in cells passing through the LMG gate, the blast region (circle in FIG. 4B) was identified in the CD45 versus SSC-Area histogram (FIG. 4B). From this blast population, CD34+, CD117+ cells were identified in the CD34 versus CD117 plot (boxed area in FIG. 4C). Finally, these cells were further analyzed for cytokine-mediated increases in phosphorylation by constructing gates in the single parameter histograms (for positively and negatively stained events, i.e., for the phosphorylated and non-phosphorylated forms, respectively, of each protein) for pS6 (FIGS. 4D and 4G), pERK (FIGS. 4E and 4H), and pSTAT5 (FIGS. 4F and 4I). […] The dotted lines in each of these histograms represent unstimulated cells at t=0 min. FCS files were processed with WinList 6.0 3D (Verity Software House).

pERK [2] = test: as above; conditions: for pERK Amp (peak amplitude of fold stimulation) / pERK RI (response interval): CD34^+, CD117^+ cells; for Frequency, pERK: frequency of positive-stained cells; for Positives/Negatives, pERK: ratio of positive- to negative-stained cells; for pERK response, fold greater than in healthy donor samples: SCF: AML1 and AML2, FL: AML1
Description: as §1, §2, §3

pS6 [3] = test: as above; conditions: for pS6 Amp (peak amplitude of fold stimulation) / pS6 RI (response interval): CD34^+, CD117^+ cells; for Frequency, pS6: frequency of positive-stained cells; for Positives/Negatives, pS6: ratio of positive- to negative-stained cells
Description: as §1, §2, §3

pSTAT5 [4] = test: Phosphoprotein kinetic profiles in bone marrow samples from healthy donors; conditions: CD34^+, CD117^+ cells, healthy donor samples
Description: (§4) Phosphoprotein kinetic profiles were analyzed in bone marrow aspiration samples from nine healthy, adult donors (i.e., normal bone marrow or NBM) and from five AML patients. Samples from healthy donors included 5 males and 4 females, ranging in age from 26 to 49 years. Approximately 10 to 20 mL of bone marrow (BM) samples were collected from the posterior iliac crest of the volunteers using IRB approved protocols. The BM samples were filtered using a 40 μm Nylon cell strainer to remove marrow particles and the white blood cell concentration determined using a blood analyzer. […] The samples were immediately used for subsequent experimentation.
as §1, §2
(§5) First, doublets, aggregates, and debris were excluded by gating on single cell events in the SSC-Area versus SSC-Height histogram. Then, in events passing through this gate, debris near the origin of the FSC-Area versus SSC-Area plot (gray in FIG. 4A) was excluded by drawing a gate around an area encompassing, primarily, lymphocytes, monocytes, and granulocytes (LMG, black in FIG. 4A). Next, in cells passing through the LMG gate, the blast region (circle in FIG. 4B) was identified in the CD45 versus SSC-Area histogram (FIG. 4B). From this blast population, CD34+, CD117+ cells were identified in the CD34 versus CD117 plot (boxed area in FIG. 4C).

pERK [5] = test: as above; conditions: for pERK Amp (peak amplitude of fold stimulation) / pERK RI (response interval): CD34^+, CD117^+ cells
Description: as §4, §1, §2, §5

pS6 [6] = test: as above; conditions: for pS6 Amp (peak amplitude of fold stimulation) / pS6 RI (response interval): CD34^+, CD117^+ cells
Description: as §4, §1, §2, §5

[7] = SCF-stimulated, healthy donor samples
[8] = SCF-stimulated, mean of healthy donors 6 to 9

Stem Cell Factor [SCF]
pSTAT5 Amp (peak amplitude of fold stimulation) (pSTAT5 [1]; AML1 sample (Example 6)): 32 | pSTAT5 Amp (peak amplitude of fold stimulation) (pSTAT5 [1]; AML2 sample (Example 6)): 2 | pSTAT5 RI (response interval) (pSTAT5 [1]; AML2 sample (Example 6)): 6 min | pERK Amp (peak amplitude of fold stimulation) (pERK [2]; AML1 sample (Example 6)): 1600 | pERK RI (response interval) (pERK [2]; AML1 sample (Example 6)): 30 min | pERK Amp (peak amplitude of fold stimulation) (pERK [2]; AML2 sample (Example 6)): 1300 | pERK RI (response interval) (pERK [2]; AML2 sample (Example 6)): 20 min | Fold Stimulation, AML to NBM ratio (pERK)AML1/(pERK)D6-9 (pERK [2]; SCF-stimulated): 30 | Fold Stimulation, AML to NBM ratio (pERK)AML2/(pERK)D6-9 (pERK [2]; SCF-stimulated): 25 | Frequency, AML to NBM ratio (pERK)AML1/(pERK)D6-9 (pERK [2]; SCF-stimulated): 1.1 | Frequency, AML to NBM ratio (pERK)AML2/(pERK)D6-9 (pERK [2]; SCF-stimulated): 1.1 | MFI, AML to NBM ratio (pERK)AML1/(pERK)D6-9 (pERK [2]; SCF-stimulated): 0.41 | MFI, AML to NBM ratio (pERK)AML2/(pERK)D6-9 (pERK [2]; SCF-stimulated): 0.35 | Positives/Negatives, AML to NBM ratio (pERK)AML1/(pERK)D6-9 (pERK [2]; SCF-stimulated): 2.0 | Positives/Negatives, AML to NBM ratio (pERK)AML2/(pERK)D6-9 (pERK [2]; SCF-stimulated): 1.5 | Fold Stimulation, pERK (pERK [2]; SCF-stimulated, AML1): 1600 | MFI, pERK (pERK [2]; SCF-stimulated, AML1): 1500 | Frequency, pERK (pERK [2]; SCF-stimulated, AML1): 88 | Positives/Negatives, pERK (pERK [2]; SCF-stimulated, AML1): 10 | Fold Stimulation, pERK (pERK [2]; SCF-stimulated, AML2): 1300 | MFI, pERK (pERK [2]; SCF-stimulated, AML2): 1300 | Frequency, pERK (pERK [2]; SCF-stimulated, AML2): 90 | Positives/Negatives, pERK (pERK [2]; SCF-stimulated, AML2): 7.4 | frequency of positively stained cells at its maximum, pERK (pERK [2]; SCF-stimulated, AML samples): approximately 90% | pERK response, fold greater than in healthy donor samples (pERK [2]): approximately 10 fold | pS6 Amp (peak amplitude of fold stimulation) (pS6 [3]; AML1 sample (Example 6)): 1100 | pS6 RI (response interval) (pS6 [3]; AML1 sample (Example 6)): 30 min | pS6 Amp (peak amplitude of fold stimulation) (pS6 [3]; AML2 sample (Example 6)): 620 | pS6 RI (response interval) (pS6 [3]; AML2 sample (Example 6)): 30 min | Fold Stimulation, AML to NBM ratio (pS6)AML1/(pS6)D6-9 (pS6 [3]; SCF-stimulated): 110 | Fold Stimulation, AML to NBM ratio (pS6)AML2/(pS6)D6-9 (pS6 [3]; SCF-stimulated): 62 | Frequency, AML to NBM ratio (pS6)AML1/(pS6)D6-9 (pS6 [3]; SCF-stimulated): 3.7 | Frequency, AML to NBM ratio (pS6)AML2/(pS6)D6-9 (pS6 [3]; SCF-stimulated): 3.7 | MFI, AML to NBM ratio (pS6)AML1/(pS6)D6-9 (pS6 [3]; SCF-stimulated): 3.0 | MFI, AML to NBM ratio (pS6)AML2/(pS6)D6-9 (pS6 [3]; SCF-stimulated): 2.3 | Positives/Negatives, AML to NBM ratio (pS6)AML1/(pS6)D6-9 (pS6 [3]; SCF-stimulated): 80 | Positives/Negatives, AML to NBM ratio (pS6)AML2/(pS6)D6-9 (pS6 [3]; SCF-stimulated): 52 | Fold Stimulation, pS6 (pS6 [3]; SCF-stimulated, AML1): 1100 | MFI, pS6 (pS6 [3]; SCF-stimulated, AML1): 3100 | Frequency, pS6 (pS6 [3]; SCF-stimulated, AML1): 96 | Positives/Negatives, pS6 (pS6 [3]; SCF-stimulated, AML1): 35 | Fold Stimulation, pS6 (pS6 [3]; SCF-stimulated, AML2): 620 | MFI, pS6 (pS6 [3]; SCF-stimulated, AML2): 2400 | Frequency, pS6 (pS6 [3]; SCF-stimulated, AML2): 97 | Positives/Negatives, pS6 (pS6 [3]; SCF-stimulated, AML2): 23 | frequency of positively stained cells at its maximum, pS6 (pS6 [3]; SCF-stimulated, AML samples): ~97% | pSTAT5 Amp (peak amplitude of fold stimulation) (pSTAT5 [4]): 0.8 ± 0.2 | pSTAT5 RI (response interval) (pSTAT5 [4]): Variable | pERK Amp (peak amplitude of fold stimulation) (pERK [5]; healthy donor samples): 120 and 120 ± 28 | pERK RI (response interval) (pERK [5]; healthy donor samples): 8.7 min and 8.7 ± 0.3 min | frequency of positively stained cells at its maximum, pERK (pERK [5]; [7]): 81% | Fold Stimulation, pERK (pERK [5]; [8]): 53 | Frequency, pERK (pERK [5]; [8]): 81 | MFI, pERK (pERK [5]; [8]): 3700 | Positives/Negatives, pERK (pERK [5]; [8]): 4.9 | pS6 Amp (peak amplitude of fold stimulation) (pS6 [6]; healthy donor samples): 18 ± 5.1 | pS6 RI (response interval) (pS6 [6]; healthy donor samples): 28 min and 28 ± 1.2 min | frequency of positively stained cells at its maximum, pS6 (pS6 [6]; [7]): 26% | Fold Stimulation, pS6 (pS6 [6]; [8]): 10 | Frequency, pS6 (pS6 [6]; [8]): 26 | MFI, pS6 (pS6 [6]; [8]): 1040 | Positives/Negatives, pS6 (pS6 [6]; [8]): 0.44

B1: FMS-Like Tyrosine Kinase 3 (FLT-3) ligand (protein, UniProt P49771 27-235, looked up)
Fms-related tyrosine kinase 3 …: TQDCSFQHSPISSDFAVKIRELSDYLLQDYPVTVASNLQDEELCGGLWRLVLAQRWMERLKTVAGSKMQGLLERVNTEIHFVTKCAFQPPPSCLRFVQTNISRLLQETSEQLVALKPWITRQNFSRCLELQCQPDSSTLPPPWSPRPLEATAPTAPQPPLLLLLLLPVGLLLLAAAWCLHWQRTRRRTPRPGEQVPPVPSPQDLLLVEH
pSTAT5 Amp (peak amplitude of fold stimulation) (pSTAT5 [1]; AML1 sample (Example 6)): 2 | pSTAT5 RI (response interval) (pSTAT5 [1]; AML1 sample (Example 6)): 2 min | pERK Amp (peak amplitude of fold stimulation) (pERK [2]; AML1 sample (Example 6)): 460 | pERK RI (response interval) (pERK [2]; AML1 sample (Example 6)): 30 min | pERK response, fold greater than in healthy donor samples (pERK [2]): approximately 10 fold | pS6 Amp (peak amplitude of fold stimulation) (pS6 [3]; AML1 sample (Example 6)): 140 | pS6 RI (response interval) (pS6 [3]; AML1 sample (Example 6)): 30 min | pSTAT5 Amp (peak amplitude of fold stimulation) (pSTAT5 [4]): 0.8 ± 0.2 | pSTAT5 RI (response interval) (pSTAT5 [4]): Variable | pERK Amp (peak amplitude of fold stimulation) (pERK [5]; healthy donor samples): 51 and 51 ± 11 | pERK RI (response interval) (pERK [5]; healthy donor samples): 18 min and 18 ± 1.5 min | pS6 Amp (peak amplitude of fold stimulation) (pS6 [6]; healthy donor samples): 12 and 12 ± 1.4 | pS6 RI (response interval) (pS6 [6]; healthy donor samples): 37 min and 37 ± 6.0 min
